This passage reports IC50 results from patent US20080194654A1, “HYDROXY-SUBSTITUTED ARYL SULFAMIDE DERIVATIVES AND METHODS OF THEIR USE” (Wyeth, priority 2006, published 2008).

In the assay the target is hDAT (Homo sapiens, UniProt Q01959). Briefly: Dopamine transporter (hDAT) membrane binding assay.
Sequence of hDAT (Q01959 whole entry): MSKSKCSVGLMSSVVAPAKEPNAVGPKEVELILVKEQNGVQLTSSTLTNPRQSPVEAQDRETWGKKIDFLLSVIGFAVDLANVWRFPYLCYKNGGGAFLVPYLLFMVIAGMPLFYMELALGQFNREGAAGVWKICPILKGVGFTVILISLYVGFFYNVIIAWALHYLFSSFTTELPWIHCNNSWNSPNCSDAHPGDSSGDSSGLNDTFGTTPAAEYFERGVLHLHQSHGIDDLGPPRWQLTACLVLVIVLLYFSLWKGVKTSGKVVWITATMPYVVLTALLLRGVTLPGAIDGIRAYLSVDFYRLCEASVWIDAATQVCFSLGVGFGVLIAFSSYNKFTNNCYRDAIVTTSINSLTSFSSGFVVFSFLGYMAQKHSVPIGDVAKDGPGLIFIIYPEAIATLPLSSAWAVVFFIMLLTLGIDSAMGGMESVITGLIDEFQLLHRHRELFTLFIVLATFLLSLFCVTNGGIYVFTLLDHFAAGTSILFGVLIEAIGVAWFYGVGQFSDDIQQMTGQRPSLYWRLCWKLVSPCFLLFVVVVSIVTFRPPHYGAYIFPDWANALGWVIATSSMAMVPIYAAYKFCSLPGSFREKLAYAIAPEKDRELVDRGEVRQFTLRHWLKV

As usually defined, the IC50 is the concentration that gives 50% inhibition. Low values mean inhibition by little substance, high ones a need for much substance. In the case of `CCNC[C@@H](O)CCN1c2ccccc2N(c2ccccc2F)S1(=O)=O`, the IC50 was greater than 1000 nM.
